Results: patent publication US8822503B2, “2-pyridone compounds” (Taisho Pharmaceutical Co., Ltd, priority 2009, dated 2014)

The molecules below were run against T1, human liver GK (Homo sapiens, UniProt P35557) (assay: GK activation test). Conditions: test compound concentration needed to activate 50% of maximum activation ability; 4 mM 14C-labeled glucose, 2 mM ATP, room temperature, 20 minutes.
T1 construct: GST (glutathione S-transferase) (N); made in house; host or cells: E. coli
T1 sequence (P35557 1-466 isoform P35557-2): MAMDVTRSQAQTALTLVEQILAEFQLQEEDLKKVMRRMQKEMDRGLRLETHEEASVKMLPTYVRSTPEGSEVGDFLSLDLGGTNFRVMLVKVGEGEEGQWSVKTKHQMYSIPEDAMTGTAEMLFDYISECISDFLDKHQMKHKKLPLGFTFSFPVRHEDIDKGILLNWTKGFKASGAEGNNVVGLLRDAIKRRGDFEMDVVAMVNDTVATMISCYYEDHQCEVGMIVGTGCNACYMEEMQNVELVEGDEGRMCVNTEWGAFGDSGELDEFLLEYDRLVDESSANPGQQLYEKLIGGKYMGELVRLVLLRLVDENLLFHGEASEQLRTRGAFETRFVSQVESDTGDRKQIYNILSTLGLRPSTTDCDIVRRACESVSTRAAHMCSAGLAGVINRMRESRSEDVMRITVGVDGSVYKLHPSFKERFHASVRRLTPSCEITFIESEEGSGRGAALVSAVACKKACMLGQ
Type: biochemical
How it was run: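 GST-tagged human liver GK from E. coli (0.24 μg/well) with 4 mM 14C-glucose, 2 mM ATP in Hepes-KOH pH 7.1, KCl, MgCl2, DTT, 1% DMSO, 20 min room temperature. Labeled glucose 6-phosphate captured on anion resin, eluted and counted. EC50 = concentration giving half of maximal activation.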

Compound	EC50 [µM]
CCCOc1ccc(/C(=C\[C@H]2CCC(=O)N2)c2ccc(C3CC3)c(=O)[nH]2)cc1Cl [Example 4-280, 6-{(E)-1-(3-Chloro-4-propoxyphenyl)-2-[(2R)-5-oxopyrrolidin-2-yl]ethenyl}-3-cyclopropylpyridin-2(1H)-one]	0.01 to 0.5
CCOc1ccc(/C(=C\[C@H]2CCC(=O)N2)c2ccc(C3CC3)c(=O)[nH]2)c(F)c1F [Example 4-282, 3-Cyclopropyl-6-{(E)-1-(4-ethoxy-2,3-difluorophenyl)-2-[(2R)-5-oxopyrrolidin-2-yl]ethenyl}pyridin-2(1H)-one]	0.01 to 0.5
O=C1CC[C@H](/C=C(\c2ccc(OC3CCCC3)cc2)c2ccc(C3CC3)c(=O)[nH]2)N1 [Example 4-283, 6-{(E)-1-[4-(Cyclopentyloxy)phenyl]-2-[(2R)-5-oxopyrrolidin-2-yl]ethenyl}-3-cyclopropylpyridin-2(1H)-one]	0.01 to 0.5
CCOc1ccc(/C(=C\[C@H]2CCC(=O)N2)c2ccc(C3CC3)c(=O)[nH]2)cc1F [Example 4-284, 3-Cyclopropyl-6-{(E)-1-(4-ethoxy-3-fluorophenyl)-2-[(2R)-5-oxopyrrolidin-2-yl]ethenyl}pyridin-2(1H)-one]	0.01 to 0.5
N#Cc1ccc(/C(=C\[C@H]2CCC(=O)N2)c2ccc(C3CC3)c(=O)[nH]2)cc1 [Example 4-285, 4-{(E)-1-(5-Cyclopropyl-6-oxo-1,6-dihydropyridin-2-yl)-2-[(2R)-5-oxopyrrolidin-2-yl]ethenyl}benzonitrile]	0.5 to 3
O=C1CC[C@H](/C=C(\c2ccc(OCCF)cc2)c2ccc(C3CC3)c(=O)[nH]2)N1 [Example 4-287, 3-Cyclopropyl-6-{(E)-1-[4-(2-fluoroethoxy)phenyl]-2-[(2R)-5-oxopyrrolidin-2-yl]ethenyl}pyridin-2(1H)-one]	0.01 to 0.5
N#Cc1cc(/C(=C\[C@H]2CCC(=O)N2)c2ccc(C3CC3)c(=O)[nH]2)ccc1F [Example 4-288, 5-{(E)-1-(5-Cyclopropyl-6-oxo-1,6-dihydropyridin-2-yl)-2-[(2R)-5-oxopyrrolidin-2-yl]ethenyl}-2-fluorobenzonitrile]	3 to 10
O=C1CC[C@H](/C=C(\c2ccc(S(=O)(=O)C3CC3)c(Cl)c2)c2ccc(C3CC3)c(=O)[nH]2)N1 [Example 4-289, 6-{(E)-1-[3-Chloro-4-(cyclopropylsulfonyl)phenyl]-2-[(2R)-5-oxopyrrolidin-2-yl]ethenyl}-3-cyclopropylpyridin-2(1H)-one]	0.01 to 0.5
O=C1CC[C@H](/C=C(\c2ccc(S(=O)(=O)C3CC3)cc2)c2ccc(C3CC3)c(=O)[nH]2)N1 [Example 4-290, 3-Cyclopropyl-6-{(E)-1-[4-(cyclopropylsulfonyl)phenyl]-2-[(2R)-5-oxopyrrolidin-2-yl]ethenyl}pyridin-2(1H)-one]	0.01 to 0.5
CN(C)S(=O)(=O)c1ccc(/C(=C\[C@H]2CCC(=O)N2)c2ccc(C3CC3)c(=O)[nH]2)cc1 [Example 4-292, 4-{(E)-1-(5-Cyclopropyl-6-oxo-1,6-dihydropyridin-2-yl)-2-[(2R)-5-oxopyrrolidin-2-yl]ethenyl}-N,N-dimethylbenzenesulfonamide]	0.01 to 0.5
CC(C)(C)c1ccc(C(C[C@H]2CCC(=O)N2)c2ccc(C3CC3)c(=O)[nH]2)cc1 (stereo partly drawn) [Example 4-358, 6-{1-(4-tert-Butylphenyl)-2-[(2R)-5-oxopyrrolidin-2-yl]ethyl}-3-cyclopropylpyridin-2(1H)-one]	0.01 to 0.5
O=C1CC[C@H](/C=C(\c2ccc(Cl)cc2)c2ccc(-c3cn[nH]c3)c(=O)[nH]2)N1 [Example 4-359, 6-{(E)-1-(4-Chlorophenyl)-2-[(2R)-5-oxopyrrolidin-2-yl]ethenyl}-3-(1H-pyrazol-4-yl)pyridin-2(1H)-one]	0.01 to 0.5
CC(C)(C)c1ccc(/C(=C\CN2CCCCC2=O)c2ccc(Cl)c(=O)[nH]2)cc1 [Example 6-4, 6-[(1E)-1-(4-tert-Butylphenyl)-3-(2-oxopiperidin-1-yl)prop-1-en-1-yl]-3-chloropyridin-2(1H)-one]	0.5 to 3
CC(C)(C)c1ccc(/C(=C\CN2CCCCCC2=O)c2ccc(Cl)c(=O)[nH]2)cc1 [Example 6-6, 1-[(2E)-3-(4-tert-Butylphenyl)-3-(5-chloro-6-oxo-1,6-dihydropyridin-2-yl)prop-2-en-1-yl]azepan-2-one]	0.5 to 3
CC(C)(C)c1ccc(/C(=C\CN2CCCS2(=O)=O)c2ccc(Cl)c(=O)[nH]2)cc1 [Example 6-7, 6-[(1E)-1-(4-tert-Butylphenyl)-3-(1,1-dioxido-1,2-thiazolidin-2-yl)prop-1-en-1-yl]-3-chloropyridin-2(1H)-one]	0.5 to 3
CC(C)(C)c1ccc(/C(=C\CN2C(=O)CCC2=O)c2ccc(Cl)c(=O)[nH]2)cc1 [Example 6-9, 1-[(2E)-3-(4-tert-Butylphenyl)-3-(5-chloro-6-oxo-1,6-dihydropyridin-2-yl)prop-2-en-1-yl]pyrrolidine-2,5-dione]	0.5 to 3
CC(C)(C)c1ccc(/C(=C\COc2ccccc2)c2ccc(Cl)c(=O)[nH]2)cc1 [Example 6-10, 6-[(1E)-1-(4-tert-Butylphenyl)-3-phenoxyprop-1-en-1-yl]-3-chloropyridin-2(1H)-one]	0.5 to 3
CC(C)(C)c1ccc(/C(=C\Cn2ccccc2=O)c2ccc(Cl)c(=O)[nH]2)cc1 [Example 6-11, 6-[(1E)-1-(4-tert-Butylphenyl)-3-(2-oxopyridin-1(2H)-yl)prop-1-en-1-yl]-3-chloropyridin-2(1H)-one]	0.5 to 3

Second part, the molecule after the results:

EC50 [µM]	Compound
0.01 to 0.5	CCCOc1ccc(/C(=C\[C@H]2CCC(=O)N2)c2ccc(C3CC3)c(=O)[nH]2)cc1 [Example 4-279, 3-Cyclopropyl-6-[(E)-2-[(2R)-5-oxopyrrolidin-2-yl]-1-(4-propoxyphenyl)ethenyl]pyridin-2(1H)-one]
0.01 to 0.5	O=C1CC[C@H](/C=C(\c2ccc(OC(F)F)c(Cl)c2)c2ccc(C3CC3)c(=O)[nH]2)N1 [Example 4-281, 6-{(E)-1-[3-Chloro-4-(difluoromethoxy)phenyl]-2-[(2R)-5-oxopyrrolidin-2-yl]ethenyl}-3-cyclopropylpyridin-2(1H)-one]
0.01 to 0.5	CCOc1ccc(/C(=C\[C@H]2CCC(=O)N2)c2ccc(C3CC3)c(=O)[nH]2)c(Cl)c1 [Example 4-286, 6-{(E)-1-(2-Chloro-4-ethoxyphenyl)-2-[(2R)-5-oxopyrrolidin-2-yl]ethenyl}-3-cyclopropylpyridin-2(1H)-one]
0.01 to 0.5	O=C1CC[C@H](/C=C(\c2ccc(S(=O)(=O)Cc3ccccc3)cc2)c2ccc(C3CC3)c(=O)[nH]2)N1 [Example 4-291, 6-{(E)-1-[4-(Benzylsulfonyl)phenyl]-2-[(2R)-5-oxopyrrolidin-2-yl]ethenyl}-3-cyclopropylpyridin-2(1H)-one]
0.01 to 0.5	O=C1CC[C@H](/C=C(\c2ccc(S(=O)(=O)Cc3ccccc3)c(Cl)c2)c2ccc(C3CC3)c(=O)[nH]2)N1 [Example 4-293, 6-{(E)-1-[4-(Benzylsulfonyl)-3-chlorophenyl]-2-[(2R)-5-oxopyrrolidin-2-yl]ethenyl}-3-cyclopropylpyridin-2(1H)-one]
0.01 to 0.5	O=C1CC[C@H](/C=C(\c2ccc(C(F)(F)F)cc2)c2ccc(-c3cn[nH]c3)c(=O)[nH]2)N1 [Example 4-360, 6-{(E)-2-[(2R)-5-Oxopyrrolidin-2-yl]-1-[4-(trifluoromethyl)phenyl]ethenyl}-3-(1H-pyrazol-4-yl)pyridin-2(1H)-one]
0.01 to 0.5	CC(C)(C)c1ccc(/C(=C\[C@H]2CCC(=O)N2)c2ccc(-c3cn[nH]c3)c(=O)[nH]2)cc1 [Example 4-361, 6-{(E)-1-(4-tert-Butylphenyl)-2-[(2R)-5-oxopyrrolidin-2-yl]ethenyl}-3-(1H-pyrazol-4-yl)pyridin-2(1H)-one]
3 to 10	Cc1ccc(/C(=N/OC2CCCC2)c2ccc(S(C)(=O)=O)cc2)[nH]c1=O [Example 5-3, (E)-6-{(Cyclopentyloxyimino)[4-(methylsulfonyl)phenyl]methyl}-3-methylpyridin-2(1H)-one]
3 to 10	CC(C)(C)c1ccc(/C(=C\CO)c2ccc(Cl)c(=O)[nH]2)cc1 [Example 6-1, 6-[(1E)-1-(4-tert-Butylphenyl)-3-hydroxyprop-1-en-1-yl]-3-chloropyridin-2(1H)-one]
0.01 to 0.5	CC(C)(C)c1ccc(/C(=C\CN2CCOC2=O)c2ccc(Cl)c(=O)[nH]2)cc1 [Example 6-2, 6-[(1E)-1-(4-tert-Butylphenyl)-3-(2-oxo-1,3-oxazolidin-3-yl)prop-1-en-1-yl]-3-chloropyridin-2(1H)-one]
0.01 to 0.5	CC(C)(C)c1ccc(/C(=C\CN2CCCC2=O)c2ccc(Cl)c(=O)[nH]2)cc1 [Example 6-3, 6-[(1E)-1-(4-tert-Butylphenyl)-3-(2-oxopyrrolidin-1-yl)prop-1-en-1-yl]-3-chloropyridin-2(1H)-one]
3 to 10	CC(C)(C)c1ccc(/C(=C\CN2CCOCC2)c2ccc(Cl)c(=O)[nH]2)cc1 [Example 6-5, 6-[(1E)-1-(4-tert-Butylphenyl)-3-(morpholin-4-yl)prop-1-en-1-yl]-3-chloropyridin-2(1H)-one]
0.5 to 3	CC(C)(C)c1ccc(/C(=C\CCN2CCCS2(=O)=O)c2ccc(Cl)c(=O)[nH]2)cc1 [Example 6-12, 6-[(1E)-1-(4-tert-Butylphenyl)-4-(1,1-dioxide-1,2-thiazolidin-2-yl)but-1-en-1-yl]-3-chloropyridin-2(1H)-one]
